The target of the experiment is S1P1/EDG1 (Homo sapiens, UniProt P21453). Briefly: S1P1 CRE-bla CHOK1 reporter assay (inhibition of Forskolin induced cAMP). The experiment is classed as cell-based. The note with it: agonist activity range, Table 2; read-out: S1P1 ACTIVITY
An excerpt:
A mammalian expression plasmid containing S1P1/EDG1 cloned into pcDNA3.1 was purchased from Missouri S&T cDNA Resource Centre. The nucleotide and amino acid sequence of human S1P1/EDG1 are published in Hla and Maciag (J Biol Chem, 265(1990), 9308-9313). S1P1/pcDNA3.1 was transfected into the CRE-bla CHO K1 (Invitrogen) cell line, and stable single cell clones were selected using standard techniques. Expression of functional SIP1/EDG1 receptor was confirmed by cell surface FACS with a S1P1 antibody (R&D Systems, clone 218713) and S1P-mediated inhibition of Forskolin induced cAMP.
Cells were seeded into 384-well black wall/clear bottom plates at 10^4 cells/well/19.5 μl assay media (DMEM-phenol free, 0.5% charcoal/dextran stripped serum, 2 mM glutamine, 0.1 mM NEAA, 1 mM Na-Pyruvate, 25 mM Hepes) and incubated for 18 hrs at 37° C. in 5% CO2. Dose response curves (10-point) were generated in 10 mM Hepes, 0.1% Pluronic F127, in the presence of Forskolin. Cells were treated with 0.5 μl compound in the presence of 2 μM Forskolin for 4 hrs at 37° C. The FRET-based β-lactamase fluorescent substrate (LiveBLAzer™ FRET B/G Loading Kit CC4-AM; Invitrogen) was prepared according to manufacturer's directions, and incubated with cells for 2 hrs at room temperature. Plates were read at Ex:410/Em:458 and Ex:410/Em:522, and the response ratio determined. Data was analyzed by non-linear regression to determine the EC50 for inhibition of Forskolin induced cAMP.
Background: In a reporter assay the amount or activity of a reporter protein is the signal.

pEC50: −log10 of the molar value. Where a name gives a salt, the structure may show the parent alone. Where only a bound is given, the exact number is not on record here.

S1P1/EDG1, sequence (P21453 whole entry): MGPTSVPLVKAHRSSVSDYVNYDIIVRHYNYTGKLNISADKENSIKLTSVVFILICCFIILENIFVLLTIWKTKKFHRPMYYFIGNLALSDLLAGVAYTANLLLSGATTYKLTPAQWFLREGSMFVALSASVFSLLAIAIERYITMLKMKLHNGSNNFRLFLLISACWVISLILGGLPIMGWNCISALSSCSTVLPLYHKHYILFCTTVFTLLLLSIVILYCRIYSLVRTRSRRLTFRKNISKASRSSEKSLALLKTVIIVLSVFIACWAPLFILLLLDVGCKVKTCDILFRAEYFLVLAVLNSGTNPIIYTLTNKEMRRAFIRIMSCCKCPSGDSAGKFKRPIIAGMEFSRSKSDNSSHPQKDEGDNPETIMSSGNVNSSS

In the case of `CC(C)Oc1ccc(-c2ncc(-c3cccc4c3CC[C@@H]4NS(=O)(=O)CCC(=O)O)s2)cc1C#N` [Compound 161], the pEC50 was 9.30 to 10.30. For the molecule `CC(C)Oc1ccc(-c2ncc(-c3cccc4c3CCC4NS(C)(=O)=O)s2)cc1C#N` (stereo in doubt) [Compound 111, (R)-N-(4-(2-(3-cyano-4-isopropoxyphenyl)thiazol-5-yl)-2,3-dihydro-1H-inden-1-yl)methanesulfonamide], the pEC50 is 9.30 to 10.30.

As for `CC(C)Oc1ccc(-c2ncc(-c3cccc4c3CC[C@@H]4NC(=O)N(C)C)s2)cc1C#N` [Compound 169], the pEC50 was 8.30 to 9.30. In the case of `CC(C)Oc1ccc(-c2nnc(-c3cccc4c3CC[C@@H]4NS(C)(=O)=O)s2)cc1C#N` [Compound 33, (S)-N-(4-(5-(3-cyano-4-isopropoxyphenyl)-1,3,4-thiadiazol-2-yl)-2,3-dihydro-1H-inden-1-yl)methanesulfonamide], the pEC50 was 9.30 to 10.30. Regarding `CC(C)Oc1ccc(-c2ncc(-c3cccc4c3CC[C@@H]4NC(=O)N3CCC[C@H](O)C3)s2)cc1C#N` [Compound 198], the pEC50 was 9.30 to 10.30.

Regarding `CC(C)Oc1ccc(-c2nnc(-c3cccc4c3CC[C@@H]4NC(=O)N3CCCC3)s2)cc1C#N` [Compound 53], the pEC50 is 8.30 to 9.30.

Turning to `CC(C)Oc1ccc(-c2nnc(-c3cccc4c3CCC4NS(N)(=O)=O)s2)cc1C#N` (stereo in doubt) [Compound 48, (R)-N-(4-(5-(3-cyano-4-isopropoxyphenyl)-1,3,4-thiadiazol-2-yl)-2,3-dihydro-1H-inden-1-yl)sulfamide], the pEC50 is over 10.30. Then `CC(C)Oc1ccc(-c2ncc(-c3cccc4c3CC[C@@H]4NC(=O)N3CCC[C@H](O)C3)s2)cc1C#N` [Compound 197], with 8.30 to 9.30; and `CC(C)Oc1ccc(-c2nnc(-c3cccc4c3CC[C@@H]4N)s2)cc1C#N` [Compound 4, (S)-5-(5-(1-amino-2,3-dihydro-1H-inden-4-yl)-1,3,4-thiadiazol-2-yl)-2-isopropoxybenzonitrile hydrochloride], with 8.30 to 9.30; and `COCCS(=O)(=O)N[C@H]1CCc2c(-c3cnc(-c4ccc(OC(C)C)c(C#N)c4)s3)cccc21` [Compound 116], with 8.30 to 9.30. Take `CC(C)Oc1ccc(-c2ncc(-c3cccc4c3CC[C@@H]4NCC(=O)N3CCCC3)s2)cc1C#N` [Compound 100]: the pEC50 is 9.30 to 10.30. On to `COC(=O)N[C@H]1CCc2c(-c3nnc(-c4ccc(OC(C)C)c(C#N)c4)s3)cccc21` [Compound 16, (S)-methyl(4-(5-(3-cyano-4-isopropoxyphenyl)-1,3,4-thiadiazol-2-yl)-2,3-dihydro-1H-inden-1-yl)carbamate], for which the pEC50 is 8.30 to 9.30. Consider `CC(C)Oc1ccc(-c2nnc(-c3cccc4c3CC[C@@H]4NS(=O)(=O)CC(N)=O)s2)cc1C#N` [Compound 44], for which the pEC50 was over 10.30. Consider `COC(=O)CC1CCN(CCS(=O)(=O)N[C@H]2CCc3c(-c4cnc(-c5ccc(OC(C)C)c(C#N)c5)s4)cccc32)CC1` [Compound 147], for which the pEC50 is 8.30 to 9.30. On to `CC(C)Oc1ccc(-c2nnc(-c3cccc4c3CC[C@@H]4NC(=O)N3CC(O)C3)s2)cc1C#N` [Compound 65], for which the pEC50 is 9.30 to 10.30. For `CC(C)Oc1ccc(-c2ncc(-c3cccc4c3CC[C@@H]4NCC(=O)N3CCC[C@H](O)C3)s2)cc1C#N` [Compound 106], the pEC50 is under 8.30. As for `CNS(=O)(=O)CCNC1CCc2c(-c3cnc(-c4ccc(OC(C)C)c(C#N)c4)s3)cccc21` (centres unmarked) [Compound 219], the pEC50 was 9.30 to 10.30.

Regarding `CC(C)Oc1ccc(-c2ncc(-c3cccc4c3CC[C@@H]4NC(=O)N3CC(O)C3)s2)cc1C#N` [Compound 171], the pEC50 was 9.30 to 10.30.

In the case of `CC(C)Oc1ccc(-c2ncc(-c3cccc4c3CC[C@@H]4N3CCC3)s2)cc1C#N` [Compound 206], the pEC50 is 9.30 to 10.30. For the molecule `CC(C)Oc1ccc(-c2nnc(-c3cccc4c3CCC4NS(=O)(=O)CC(=O)O)s2)cc1C#N` (stereo in doubt) [Compound 41, (R)-2-(N-(4-(5-(3-cyano-4-isopropoxyphenyl)-1,3,4-thiadiazol-2-yl)-2,3-dihydro-1H-inden-1-yl)sulfamoyl)acetic acid], the pEC50 was over 10.30.
